In the NIST ThermoML archive (doi:10.1016/j.jct.2011.07.021):
Numbers after ± are expanded uncertainties.

Assays:
[1] = refractive index (Na D-line) (dimensionless); settings: 101.33 kPa, Liquid, Standard Abbe refractometry
[2] = relative permittivity at zero frequency (dimensionless); settings: 101.33 kPa, Liquid, Parallel plate capacitor
[3] = 101.33 kPa, Liquid, Vibrating tube method
[4] = relative permittivity at zero frequency (dimensionless); xn = mol fraction of the nth substance listed; settings: 101 kPa, Liquid, Parallel plate capacitor
[5] = refractive index (Na D-line) (dimensionless); xn = mol fraction of the nth substance listed; settings: 101 kPa, Liquid, Standard Abbe refractometry

| SMILES | refractive index ([1]; 298.2 K) | refractive index ([1]; 308.2 K) | refractive index ([1]; 318.2 K) | relative permittivity at zero frequency ([2]; 298.2 K) | relative permittivity at zero frequency ([2]; 308.2 K) | relative permittivity at zero frequency ([2]; 318.2 K) | mass density ([3]; 298.2 K) [kg/m3] | mass density ([3]; 308.2 K) [kg/m3] | mass density ([3]; 318.2 K) [kg/m3] | also measured |
| --- | --- | --- | --- | --- | --- | --- | --- | --- | --- | --- |
| CCC(O)CO (centres undefined) [1,2-butanediol] | 1.4372 ± 0.0005 | 1.433 ± 0.0005 | 1.4288 ± 0.0005 | 22.143 ± 0.037 | 20.365 ± 0.036 | 18.661 ± 0.036 | 998.67 ± 0.85 | 991.15 ± 0.84 | 983.55 ± 0.83 |  |
| CCC(O)CO (centres undefined) [1,2-butanediol] + CCCCC(CC)CO |  |  |  |  |  |  |  |  |  | relative permittivity at zero frequency ([4]; 298.2 K, x1 = 1): 22.143 ± 0.037; relative permittivity at zero frequency ([4]; 308.2 K, x1 = 1): 20.365 ± 0.036; relative permittivity at zero frequency ([4]; 318.2 K, x1 = 1): 18.661 ± 0.036; refractive index ([5]; 298.2 K, x1 = 1): 1.4372 ± 0.0005; refractive index ([5]; 308.2 K, x1 = 1): 1.4312 ± 0.0005; refractive index ([5]; 318.2 K, x1 = 1): 1.4281 ± 0.0005 |
| C1COCCO1 [1,4-dioxane] | 1.4201 ± 0.0004 | 1.4142 ± 0.0004 | 1.4084 ± 0.0004 | 2.228 ± 0.01 | 2.21 ± 0.01 | 2.187 ± 0.01 | 1027.9 ± 0.27 | 1016.11 ± 0.26 | 1005 ± 0.3 |  |
| C1COCCO1 [1,4-dioxane] + CCC(O)CO |  |  |  |  |  |  |  |  |  | relative permittivity at zero frequency ([4]; 298.2 K, x2 = 0): 2.228 ± 0.01; relative permittivity at zero frequency ([4]; 308.2 K, x2 = 0): 2.209 ± 0.01; relative permittivity at zero frequency ([4]; 318.2 K, x2 = 0): 2.187 ± 0.01; refractive index ([5]; 298.2 K, x2 = 0): 1.4201 ± 0.0004; refractive index ([5]; 308.2 K, x2 = 0): 1.4142 ± 0.0004; refractive index ([5]; 318.2 K, x2 = 0): 1.4084 ± 0.0004 |
| CCCCC(CC)CO (centres undefined) [2-ethyl-1-hexanol] | 1.4293 ± 0.0004 | 1.4252 ± 0.0004 | 1.4213 ± 0.0004 | 7.353 ± 0.022 | 6.361 ± 0.021 | 5.522 ± 0.02 | 830.62 ± 0.22 | 823.1 ± 0.22 | 814.91 ± 0.23 |  |
